The record followed here is patent US12030904B2 (priority 2020, dated 2024).

Read-outs that look alike come from different tables or passages of the source.

One data set relates to SARS-CoV-2. Put plainly: microbe, parasite or virus in culture. It counts as cell-based. The following applies: Severe acute respiratory syndrome coronavirus 2, read-out: SARS EC50.
Data set [1] relates to Recombinant Respiratory Syncytial virus strain A2 containing the firefly luciferase reporter (RSV-Fluc). The experiment in a line: microbe, parasite or virus in culture. Format: cell-based. The note with it: human respiratory syncytial virus, NHBE.
The next data set can be described thus: MT4 cytotoxicity (CC50). The note with it: human, MT4 cells, MT4 CC50, Table 2a.
Where [2] appears, read: 72 h, read-out: RSV-Fluc EC50 (NHBE), NHBE cells, three days, Table 2.

By EC50 is commonly meant the concentration needed to bring the measured effect to its halfway point. Usually CC50 stands for the concentration at which the toxic effect on the cells reaches its halfway point. A lower CC50 goes with greater toxicity to the cells. Regarding `CCCCCCCCCCCCCCCCCCOC[C@H](COP(=O)(O)OC[C@H]1O[C@@](C#N)(c2ccc3c(N)ncnn23)[C@H](O)[C@@H]1O)OCc1cccc(C#N)c1` [Example 39, ((2R,3S,4R,5R)-5-(4-aminopyrrolo[2,1-f][1,2,4]triazin-7-yl)-5-cyano-3,4-dihydroxytetrahydrofuran-2-yl)methyl ((R)-2-((3-cyanobenzyl)oxy)-3-(octadecyloxy)propyl) hydrogen phosphate], the EC50 was 284 nM in the data set on SARS-CoV-2; 27 nM in data set [1] (setting [2]); 27 nM in data set [1] (read-out: RSV EC50, Table 2a). The same compound gave a 50% cytotoxic concentration (CC50) in the data set “MT4 cytotoxicity (CC50)” of 348 nM.

On to `CCCCCCCCCCCCCCCCCCOC[C@H](COP(=O)(O)OC[C@H]1O[C@@](C#N)(c2ccc3c(N)ncnn23)[C@H](O)[C@@H]1O)OCc1ccc(C)cc1` [Example 40, ((2R,3S,4R,5R)-5-(4-aminopyrrolo[2,1-f][1,2,4]triazin-7-yl)-5-cyano-3,4-dihydroxytetrahydrofuran-2-yl)methyl ((R)-2-((4-methylbenzyl)oxy)-3-(octadecyloxy)propyl) hydrogen phosphate], for which the concentration for a half-maximal effect (EC50) was 185 nM with SARS-CoV-2; 84 nM in data set [1] (setting [2]); 84 nM in data set [1] (read-out: RSV EC50, Table 2a). It took 2240 nM to reach half-maximal cytotoxicity in the data set “MT4 cytotoxicity (CC50)” (CC50).

For the compound `CCCCCCCCCCCCCCCCCCOC[C@H](COP(=O)(O)OC[C@H]1O[C@@](C#N)(c2ccc3c(N)ncnn23)[C@H](O)[C@@H]1O)OCc1ccc(Cl)cc1` [Example 41, ((2R,3S,4R,5R)-5-(4-aminopyrrolo[2,1-f][1,2,4]triazin-7-yl)-5-cyano-3,4-dihydroxytetrahydrofuran-2-yl)methyl ((R)-2-((4-chlorobenzyl)oxy)-3-(octadecyloxy)propyl) hydrogen phosphate], the EC50 was found to be 174 nM in the data set on SARS-CoV-2; 52 nM in data set [1] (setting [2]); 52 nM in data set [1] (read-out: RSV EC50, Table 2a). The same compound showed a cytotoxic concentration (CC50) in “MT4 cytotoxicity (CC50)” of 2410 nM.

In the case of `CCCCCCCCCCCCCCCCCCOC[C@H](COP(=O)(O)OC[C@H]1O[C@@](C#N)(c2ccc3c(N)ncnn23)[C@H](O)[C@@H]1O)OCc1ccccc1F` [Example 42, ((2R,3S,4R,5R)-5-(4-aminopyrrolo[2,1-f][1,2,4]triazin-7-yl)-5-cyano-3,4-dihydroxytetrahydrofuran-2-yl)methyl ((R)-2-((2-fluorobenzyl)oxy)-3-(octadecyloxy)propyl) hydrogen phosphate], the concentration for a half-maximal effect (EC50) amounted to 593 nM with SARS-CoV-2; 35 nM in data set [1] (setting [2]); 36 nM in data set [1] (read-out: RSV EC50, Table 2a). This compound also came in with a cytotoxic concentration (CC50) in “MT4 cytotoxicity (CC50)” of 2220 nM.

Turning to `CCCCCCCCCCCCCCCCCCOC[C@H](COP(=O)(O)OC[C@H]1O[C@@](C#N)(c2ccc3c(N)ncnn23)[C@H](O)[C@@H]1O)OCc1c(F)cccc1F` [Example 43, ((2R,3S,4R,5R)-5-(4-aminopyrrolo[2,1-f][1,2,4]triazin-7-yl)-5-cyano-3,4-dihydroxytetrahydrofuran-2-yl)methyl ((R)-2-((2,6-difluorobenzyl)oxy)-3-(octadecyloxy)propyl) hydrogen phosphate], the half-maximal effective concentration (EC50) was 139 nM in the data set with SARS-CoV-2; 68 nM in data set [1] (setting [2]); 68 nM in data set [1] (read-out: RSV EC50, Table 2a). For the same compound, the CC50 in the data set “MT4 cytotoxicity (CC50)” amounted to 1470 nM.

With `CCCCCCCCCCCCCCCCCCOC[C@H](COP(=O)(O)OC[C@H]1O[C@@](C#N)(c2ccc3c(N)ncnn23)[C@H](O)[C@@H]1O)OC` [Example 44, ((2R,3S,4R,5R)-5-(4-aminopyrrolo[2,1-f][1,2,4]triazin-7-yl)-5-cyano-3,4-dihydroxytetrahydrofuran-2-yl)methyl ((R)-2-methoxy-3-(octadecyloxy)propyl) hydrogen phosphate], the EC50 in the data set on SARS-CoV-2 was 917 nM; in data set [1] (setting [2]) it was 53 nM; in data set [1] (read-out: RSV EC50, Table 2a) it was 53 nM. This compound also displayed a CC50 in the data set “MT4 cytotoxicity (CC50)” of 4000 nM.

For `CCCCCCCCCCCCCCCCCCOC[C@H](COP(=O)(O)OC[C@H]1O[C@@](C#N)(c2ccc3c(N)ncnn23)[C@H](O)[C@@H]1O)OCc1cccc(F)c1` [Example 45, ((2R,3S,4R,5R)-5-(4-aminopyrrolo[2,1-f][1,2,4]triazin-7-yl)-5-cyano-3,4-dihydroxytetrahydrofuran-2-yl)methyl ((R)-2-((3-fluorobenzyl)oxy)-3-(octadecyloxy)propyl) hydrogen phosphate], the EC50 in the data set with SARS-CoV-2 is 311 nM; in data set [1] (setting [2]) it was 69 nM; in data set [1] (read-out: RSV EC50, Table 2a), 69 nM. Further, the midpoint of cytotoxicity in “MT4 cytotoxicity (CC50)”, the CC50, lay at 4420 nM.

Turning to `CCCCCCCCCCCCCCCCCCOC[C@H](COP(=O)(O)OC[C@H]1O[C@@](C#N)(c2ccc3c(N)ncnn23)[C@H](O)[C@@H]1O)OCC(C)C` [Example 46, ((2R,3S,4R,5R)-5-(4-aminopyrrolo[2,1-f][1,2,4]triazin-7-yl)-5-cyano-3,4-dihydroxytetrahydrofuran-2-yl)methyl ((R)-2-isobutoxy-3-(octadecyloxy)propyl) hydrogen phosphate], the half-maximal effective concentration (EC50) in the data set with SARS-CoV-2 was determined as 2470 nM; in data set [1] (setting [2]) it was 1100 nM; in data set [1] (read-out: RSV EC50, Table 2a), 1090 nM. The compound further gave a half-maximal cytotoxic concentration (CC50) in the data set “MT4 cytotoxicity (CC50)” of 50000 nM.

On to `CCCCCCCCCCCCCCCCCCOC[C@H](COP(=O)(O)OC[C@H]1O[C@@](C#N)(c2ccc3c(N)ncnn23)[C@H](O)[C@@H]1O)OC(C)C` [Example 47, ((2R,3S,4R,5R)-5-(4-aminopyrrolo[2,1-f][1,2,4]triazin-7-yl)-5-cyano-3,4-dihydroxytetrahydrofuran-2-yl)methyl ((R)-2-isopropoxy-3-(octadecyloxy)propyl) hydrogen phosphate], for which the 50% effective concentration (EC50) is 1080 nM in the data set on SARS-CoV-2; 300 nM in data set [1] (setting [2]); 297 nM in data set [1] (read-out: RSV EC50, Table 2a). In addition, the 50% cytotoxic concentration (CC50) in the data set “MT4 cytotoxicity (CC50)” turned out to be 7870 nM.

Regarding `CCCCCCCCCCCCCCCCCCOC[C@H](COP(=O)(O)OC[C@H]1O[C@@](C#N)(c2ccc3c(N)ncnn23)[C@H](O)[C@@H]1O)OCc1ccc(Cl)c(Cl)c1` [Example 48, ((2R,3S,4R,5R)-5-(4-aminopyrrolo[2,1-f][1,2,4]triazin-7-yl)-5-cyano-3,4-dihydroxytetrahydrofuran-2-yl)methyl ((R)-2-((3,4-dichlorobenzyl)oxy)-3-(octadecyloxy)propyl) hydrogen phosphate], the concentration giving a half-maximal response (EC50) in the data set on SARS-CoV-2 came to 10000 nM; in data set [1] (setting [2]), 78 nM; in data set [1] (read-out: RSV EC50, Table 2a), 78 nM. In addition, in “MT4 cytotoxicity (CC50)”, the 50% cytotoxic concentration (CC50) was 1610 nM.

Take `CCCCCCCCCCCCCCCCCCOC[C@H](COP(=O)(O)OC[C@H]1O[C@@](C#N)(c2ccc3c(N)ncnn23)[C@H](O)[C@@H]1O)OCc1ccc(OC)c(Cl)c1` [Example 49, ((2R,3S,4R,5R)-5-(4-aminopyrrolo[2,1-f][1,2,4]triazin-7-yl)-5-cyano-3,4-dihydroxytetrahydrofuran-2-yl)methyl ((R)-2-((3-chloro-4-methoxybenzyl)oxy)-3-(octadecyloxy)propyl) hydrogen phosphate]: the EC50 is 3350 nM with SARS-CoV-2; 230 nM in data set [1] (setting [2]); 232 nM in data set [1] (read-out: RSV EC50, Table 2a). In addition, the CC50 in the data set “MT4 cytotoxicity (CC50)” was determined as 951 nM.

For the compound `CCCCCCCCCCCCCCCCCCOC[C@H](COP(=O)(O)OC[C@H]1O[C@@](C#N)(c2ccc3c(N)ncnn23)[C@H](O)[C@@H]1O)OCc1ccc2c(c1)CCC2` [Example 52, ((2R,3S,4R,5R)-5-(4-aminopyrrolo[2,1-f][1,2,4]triazin-7-yl)-5-cyano-3,4-dihydroxytetrahydrofuran-2-yl)methyl ((R)-2-((2,3-dihydro-1H-inden-5-yl)methoxy)-3-(octadecyloxy)propyl) hydrogen phosphate], the EC50 in the data set on SARS-CoV-2 came to 487 nM; in data set [1] (read-out: RSV EC50, Table 2a) it was 125 nM. The compound further came in with a 50% cytotoxic concentration (CC50) in the data set “MT4 cytotoxicity (CC50)” of 17900 nM.

Regarding `CCCCCCCCCCCCCCCCCCOC[C@H](COP(=O)(O)OC[C@H]1O[C@@](C#N)(c2ccc3c(N)ncnn23)[C@H](O)[C@@H]1O)OCc1ccc(C#N)cc1F` [Example 53, ((2R,3S,4R,5R)-5-(4-aminopyrrolo[2,1-f][1,2,4]triazin-7-yl)-5-cyano-3,4-dihydroxytetrahydrofuran-2-yl)methyl ((R)-2-((4-cyano-2-fluorobenzyl)oxy)-3-(octadecyloxy)propyl) hydrogen phosphate], the EC50 came out at 912 nM with SARS-CoV-2 and 32 nM in data set [1] (read-out: RSV EC50, Table 2a). The same compound yielded a CC50 in “MT4 cytotoxicity (CC50)” of 1840 nM.

As for `CCCCCCCCCCCCCCCCCCOC[C@H](COP(=O)(O)OC[C@H]1O[C@@](C#N)(c2ccc3c(N)ncnn23)[C@H](O)[C@@H]1O)OCc1ccc(C#N)c(OC)c1` [Example 54, ((2R,3S,4R,5R)-5-(4-Aminopyrrolo[2,1-f][1,2,4]triazin-7-yl)-5-cyano-3,4-dihydroxytetrahydrofuran-2-yl)methyl ((R)-2-((4-cyano-3-methoxybenzyl)oxy)-3-(octadecyloxy)propyl) hydrogen phosphate], the half-maximal effective concentration (EC50) with SARS-CoV-2 stood at 1630 nM; in data set [1] (read-out: RSV EC50, Table 2a) it was 19 nM. Besides, it took 289 nM to reach half-maximal cytotoxicity in the data set “MT4 cytotoxicity (CC50)” (CC50).

For `CCCCCCCCCCCCCCCCCOCCCOP(=O)(O)OC[C@H]1O[C@@](C#N)(c2ccc3c(N)ncnn23)[C@H](O)[C@@H]1O` [Example 55, ((2R,3S,4R,5R)-5-(4-aminopyrrolo[2,1-f][1,2,4]triazin-7-yl)-5-cyano-3,4-dihydroxytetrahydrofuran-2-yl)methyl (3-(heptadecyloxy)propyl) hydrogen phosphate], the EC50 in the data set on SARS-CoV-2 came out at 9420 nM; in data set [1] (read-out: RSV EC50, Table 2a) it was 86 nM. In “MT4 cytotoxicity (CC50)”, this compound yielded a CC50 of 29900 nM.

Consider `CCCCCCCCCCOCCCOP(=O)(O)OC[C@H]1O[C@@](C#N)(c2ccc3c(N)ncnn23)[C@H](O)[C@@H]1O` [Example 56, ((2R,3S,4R,5R)-5-(4-Aminopyrrolo[2,1-f][1,2,4]triazin-7-yl)-5-cyano-3,4-dihydroxytetrahydrofuran-2-yl)methyl (3-(decyloxy)propyl) hydrogen phosphate], for which the concentration for a half-maximal effect (EC50) worked out at 10000 nM with SARS-CoV-2; 5000 nM in data set [1] (setting [2]); 5000 nM in data set [1] (read-out: RSV EC50, Table 2a). This compound yielded a CC50 in the data set “MT4 cytotoxicity (CC50)” of 50000 nM.

With `CCCCCCCCCCCCOCCCOP(=O)(O)OC[C@H]1O[C@@](C#N)(c2ccc3c(N)ncnn23)[C@H](O)[C@@H]1O` [Example 57, ((2R,3S,4R,5R)-5-(4-Aminopyrrolo[2,1-f][1,2,4]triazin-7-yl)-5-cyano-3,4-dihydroxytetrahydrofuran-2-yl)methyl (3-(dodecyloxy)propyl) hydrogen phosphate], the 50% effective concentration (EC50) came out at 10000 nM in the data set with SARS-CoV-2; 2200 nM in data set [1] (setting [2]); 2180 nM in data set [1] (read-out: RSV EC50, Table 2a). This compound also came in with a 50% cytotoxic concentration (CC50) in “MT4 cytotoxicity (CC50)” of 50000 nM.
